{"source": "paper PMC10892984", "about": "“Novel Antineoplastic Inducers of Mitochondrial Apoptosis in Human Cancer Cells” (Molecules, 2024)", "key": {"[1]": {"test_system": "T-47D", "details": "48 h"}, "[2]": {"test_system": "NCI-H226"}, "[3]": {"test_system": "CAKI-1"}, "[4]": {"test_system": "SK-MEL-2"}, "[5]": {"test_system": "OVCAR-5"}, "[6]": {"test_system": "HCT-15"}, "[7]": {"test_system": "SK-MEL-5"}, "[8]": {"test_system": "KM-12"}, "[9]": {"test_system": "MOLT-4"}, "[10]": {"test_system": "UO-31"}, "[11]": {"test_system": "SF-295"}, "[12]": {"test_system": "HOP-62"}, "[13]": {"test_system": "OVCAR-8"}, "[14]": {"test_system": "A549"}, "[15]": {"test_system": "PC-3"}, "[16]": {"test_system": "DU-145 cells", "assay": "Cytochrome c assay (mitochondrial and cytosolic), ELISA", "format": "cell-based, human", "protocol": "(§1) Cell numbers of 2 × 10^6 PC-3 and DU-145 cells were seeded into a […]. […] The protein content for each fraction was calculated to determine the mass content of cytochrome c in each fraction (pg cytochrome c/mg total protein). The mass content of cytochrome c (pg cytochrome c/mg total protein) was normalized towards the corresponding blank DMSO control and is given in percent (%) of blank DMSO control."}, "[17]": {"test_system": "PC-3 cells", "assay": "Cytochrome c assay (mitochondrial and cytosolic), ELISA", "format": "cell-based, human", "protocol": "as §1"}, "[18]": {"test_system": "UACC-257"}, "[19]": {"test_system": "NCI/ADR-RES"}, "[20]": {"test_system": "SK-MEL-28"}, "[21]": {"test_system": "SN12C"}, "[22]": {"test_system": "RXF 393"}, "[23]": {"test_system": "786-0"}, "[24]": {"test_system": "IGROV1"}, "[25]": {"test_system": "A498"}, "[26]": {"test_system": "OVCAR-3"}, "[27]": {"test_system": "LOX IMVI"}, "[28]": {"details": "25 µM, 50 µM and 75 µM, 48 h post-treatment"}, "[29]": {"details": "Homo sapiens, 48 h, read-out: LC50"}}, "data": [{"molecule": "COc1cc2c(c(OC)c1OC)-c1ccc(NNC(N)=S)c(=O)cc1C(NC(C)=O)CC2", "note": "[Compound 2, N-[(aS,7S)-10-(2-carbamothioylhydrazinyl)-1,2,3-trimethoxy-9-oxo-5,6,7,9-tetrahydrobenzo[a]heptalen-7-yl]acetamide monohydrate × ⅔ (ethyl acetate)]", "values": [{"measurement": "GI50", "setting": "[1]; Homo sapiens, T47D", "value": "> 100", "unit": "µM"}, {"measurement": "CC50", "setting": "[1]; Homo sapiens, T47D, read-out: LC50", "value": "> 100", "unit": "µM"}, {"measurement": "TGI", "setting": "[1]; T-47D, breast cancer, mutant p53", "value": "> 100", "unit": "µM"}, {"measurement": "GI50", "setting": "[2]; Homo sapiens, NCI-H226, 48 h", "value": 1.74, "unit": "µM"}, {"measurement": "CC50", "setting": "[2]; Homo sapiens, NCI-H226, 48 h, read-out: LC50", "value": "> 100", "unit": "µM"}, {"measurement": "TGI", "setting": "[2]; NCI-H226, non-small-cell lung cancer, p53 Lit. inconclusive, 48 h", "value": "> 100", "unit": "µM"}, {"measurement": "TGI", "setting": "[3]; CAKI-1, renal cancer, wild-type p53, 48 h", "value": "> 100", "unit": "µM"}, {"measurement": "GI50", "setting": "[3]; Homo sapiens, CAKI-1, 48 h", "value": 7.12, "unit": "µM"}, {"measurement": "CC50", "setting": "[3]; Homo sapiens, CAKI-1, 48 h, read-out: LC50", "value": "> 100", "unit": "µM"}, {"measurement": "GI50", "setting": "[4]; Homo sapiens, SK-MEL-2, 48 h", "value": "> 100", "unit": "µM"}, {"measurement": "CC50", "setting": "[4]; Homo sapiens, SK-MEL-2, 48 h, read-out: LC50", "value": "> 100", "unit": "µM"}, {"measurement": "TGI", "setting": "[4]; SK-MEL-2, melanoma, mutant p53, 48 h", "value": "> 100", "unit": "µM"}, {"measurement": "GI50", "setting": "[5]; Homo sapiens, OVCAR-5, 48 h", "value": 9.67, "unit": "µM"}, {"measurement": "CC50", "setting": "[5]; Homo sapiens, OVCAR-5, 48 h, read-out: LC50", "value": "> 100", "unit": "µM"}, {"measurement": "TGI", "setting": "[5]; OVCAR-5, ovarian cancer, p53 Lit. inconclusive, 48 h", "value": "> 100", "unit": "µM"}, {"measurement": "TGI", "setting": "[6]; HCT-15, colon cancer, mutant p53, 48 h", "value": "> 100", "unit": "µM"}, {"measurement": "GI50", "setting": "[6]; Homo sapiens, HCT-15, 48 h", "value": 4.03, "unit": "µM"}, {"measurement": "CC50", "setting": "[6]; Homo sapiens, HCT-15, 48 h, read-out: LC50", "value": "> 100", "unit": "µM"}, {"measurement": "GI50", "setting": "[7]; Homo sapiens, SK-MEL-5, 48 h", "value": 0.373, "unit": "µM"}, {"measurement": "CC50", "setting": "[7]; Homo sapiens, SK-MEL-5, 48 h, read-out: LC50", "value": "> 100", "unit": "µM"}, {"measurement": "TGI", "setting": "[7]; SK-MEL-5, melanoma, wild-type p53, 48 h", "value": 4.71, "unit": "µM"}, {"measurement": "GI50", "setting": "[8]; Homo sapiens, KM12, 48 h", "value": 0.255, "unit": "µM"}, {"measurement": "CC50", "setting": "[8]; Homo sapiens, KM12, 48 h, read-out: LC50", "value": "> 100", "unit": "µM"}, {"measurement": "TGI", "setting": "[8]; KM-12, colon cancer, mutant p53, 48 h", "value": 0.801, "unit": "µM"}, {"measurement": "GI50", "setting": "[9]; Homo sapiens, MOLT-4, 48 h", "value": 0.548, "unit": "µM"}, {"measurement": "CC50", "setting": "[9]; Homo sapiens, MOLT-4, 48 h, read-out: LC50", "value": "> 100", "unit": "µM"}, {"measurement": "TGI", "setting": "[9]; MOLT-4, leukemia, mutant p53, 48 h", "value": "> 100", "unit": "µM"}, {"measurement": "GI50", "setting": "[10]; Homo sapiens, UO-31, 48 h", "value": "> 100", "unit": "µM"}, {"measurement": "CC50", "setting": "[10]; Homo sapiens, UO-31, 48 h, read-out: LC50", "value": "> 100", "unit": "µM"}, {"measurement": "TGI", "setting": "[10]; UO-31, renal cancer, wild-type p53, 48 h", "value": "> 100", "unit": "µM"}, {"measurement": "GI50", "setting": "[11]; Homo sapiens, SF-295, 48 h", "value": 0.549, "unit": "µM"}, {"measurement": "CC50", "setting": "[11]; Homo sapiens, SF-295, 48 h, read-out: LC50", "value": "> 100", "unit": "µM"}, {"measurement": "TGI", "setting": "[11]; SF-295, CNS cancer (brain tumor), mutant p53, 48 h", "value": "> 100", "unit": "µM"}, {"measurement": "TGI", "setting": "[12]; HOP-62, non-small-cell lung cancer, mutant p53, 48 h", "value": "> 100", "unit": "µM"}, {"measurement": "GI50", "setting": "[12]; Homo sapiens, HOP-62, 48 h", "value": 0.7, "unit": "µM"}, {"measurement": "CC50", "setting": "[12]; Homo sapiens, HOP-62, 48 h, read-out: LC50", "value": "> 100", "unit": "µM"}, {"measurement": "GI50", "setting": "[13]; Homo sapiens, OVCAR-8, 48 h", "value": 0.97, "unit": "µM"}, {"measurement": "CC50", "setting": "[13]; Homo sapiens, OVCAR-8, 48 h, read-out: LC50", "value": "> 100", "unit": "µM"}, {"measurement": "TGI", "setting": "[13]; OVCAR-8, ovarian cancer, mutant p53, 48 h", "value": "> 100", "unit": "µM"}, {"measurement": "TGI", "setting": "[14]; A549, non-small-cell lung cancer, wild-type p53, 48 h", "value": "> 100", "unit": "µM"}, {"measurement": "GI50", "setting": "[14]; Homo sapiens, A549, 48 h", "value": 3.23, "unit": "µM"}, {"measurement": "CC50", "setting": "[14]; Homo sapiens, A549, 48 h, read-out: LC50", "value": "> 100", "unit": "µM"}, {"measurement": "GI50", "setting": "[15]; Homo sapiens, PC-3, 48 h", "value": 0.255, "unit": "µM"}, {"measurement": "CC50", "setting": "[15]; Homo sapiens, PC-3, 48 h, read-out: LC50", "value": "> 100", "unit": "µM"}, {"measurement": "TGI", "setting": "[15]; PC-3, prostate cancer, mutant p53 (null p53 protein), 48 h", "value": "> 100", "unit": "µM"}, {"measurement": "toxicity for the cell line", "setting": "[16]; [28]", "value": "highly toxic"}, {"measurement": "difference in the cytochrome c-residing cellular compartment", "setting": "[16]; 48 h, stated as less significantly than in PC-3", "value": "failed to induce a significant difference"}, {"measurement": "toxicity for the cell line", "setting": "[17]; [28]", "value": "highly toxic"}, {"measurement": "difference in the cytochrome c-residing cellular compartment", "setting": "[17]; 48 h", "value": "failed to induce a significant difference"}, {"measurement": "GI50", "setting": "[18]; Homo sapiens, UACC-257, 48 h", "value": 0.646, "unit": "µM"}, {"measurement": "CC50", "setting": "[18]; Homo sapiens, UACC-257, 48 h, read-out: LC50", "value": "> 100", "unit": "µM"}, {"measurement": "TGI", "setting": "[18]; UACC-257, melanoma, wild-type p53, 48 h", "value": "> 100", "unit": "µM"}, {"measurement": "GI50", "setting": "[19]; Homo sapiens, 48 h", "value": 25.3, "unit": "µM"}, {"measurement": "CC50", "setting": "[19]; [29]", "value": "> 100", "unit": "µM"}, {"measurement": "TGI", "setting": "[19]; ovarian cancer, mutant p53, 48 h", "value": "> 100", "unit": "µM"}, {"measurement": "CC50", "setting": "[20]; Homo sapiens, SK-MEL-28, 48 h, read-out: LC50", "value": "> 100", "unit": "µM"}, {"measurement": "TGI", "setting": "[20]; SK-MEL-28, melanoma, mutant p53, 48 h", "value": "> 100", "unit": "µM"}, {"measurement": "GI50", "setting": "[21]; Homo sapiens, 48 h", "value": 0.828, "unit": "µM"}, {"measurement": "CC50", "setting": "[21]; [29]", "value": "> 100", "unit": "µM"}, {"measurement": "TGI", "setting": "[21]; renal cancer, mutant p53, 48 h", "value": "> 100", "unit": "µM"}, {"measurement": "GI50", "setting": "[22]; Homo sapiens, RXF 393, 48 h", "value": 0.298, "unit": "µM"}, {"measurement": "CC50", "setting": "[22]; Homo sapiens, RXF 393, 48 h, read-out: LC50", "value": "> 100", "unit": "µM"}, {"measurement": "TGI", "setting": "[22]; RXF 393, renal cancer, mutant p53, 48 h", "value": 0.747, "unit": "µM"}, {"measurement": "TGI", "setting": "[23]; 786-0, renal cancer, mutant p53, 48 h", "value": "> 100", "unit": "µM"}, {"measurement": "GI50", "setting": "[23]; Homo sapiens, 786-0, 48 h", "value": 0.818, "unit": "µM"}, {"measurement": "CC50", "setting": "[23]; Homo sapiens, 786-0, 48 h, read-out: LC50", "value": "> 100", "unit": "µM"}, {"measurement": "GI50", "setting": "[24]; Homo sapiens, IGROV-1, 48 h", "value": 1.18, "unit": "µM"}, {"measurement": "CC50", "setting": "[24]; Homo sapiens, IGROV-1, 48 h, read-out: LC50", "value": "> 100", "unit": "µM"}, {"measurement": "TGI", "setting": "[24]; IGROV1, ovarian cancer, mutant p53, 48 h", "value": "> 100", "unit": "µM"}, {"measurement": "TGI", "setting": "[25]; A498, renal cancer, wild-type p53, 48 h", "value": "> 100", "unit": "µM"}, {"measurement": "GI50", "setting": "[25]; Homo sapiens, A498, 48 h", "value": 2.09, "unit": "µM"}, {"measurement": "CC50", "setting": "[25]; Homo sapiens, A498, 48 h, read-out: LC50", "value": "> 100", "unit": "µM"}, {"measurement": "GI50", "setting": "[26]; Homo sapiens, OVCAR-3, 48 h", "value": 0.217, "unit": "µM"}, {"measurement": "TGI", "setting": "[26]; OVCAR-3, ovarian cancer, mutant p53, 48 h", "value": 0.459, "unit": "µM"}, {"measurement": "GI50", "setting": "[27]; Homo sapiens, 48 h", "value": 0.71, "unit": "µM"}, {"measurement": "CC50", "setting": "[27]; [29]", "value": "> 100", "unit": "µM"}, {"measurement": "TGI", "setting": "[27]; melanoma, wild-type p53, 48 h", "value": "> 100", "unit": "µM"}]}]}
